{
  "source": "patent US20230293629A1",
  "about": "“METHODS FOR ATTENUATING RELEASE OF INFLAMMATORY MEDIATORS AND PEPTIDES USEFUL THEREIN” (BIOMARCK PHARMACEUTICALS LTD., priority 2006, published 2023)",
  "system": "MARCKS phosphorylation in NHBE cells",
  "assay": "MARCKS phosphorylation in NHBE cells, radiolabeled immunoprecipitation assay",
  "format": "cell-based, human",
  "conditions": "100 nM PMA, NHBE cells",
  "procedure": "Radiolabeled Immunoprecipitation Assay—When labeling with [^32P]phosphate, cells were preincubated for 2 h in phosphate-free Dulbecco's modified Eagle's medium containing 0.2% bovine serum albumin and then labeled with 0.1 mCi/ml [^32P]orthophosphate (9000 Ci/mmol, PerkinElmer Life Sciences) for 2 h. For labeling with [^3H]myristic acid or 3H-amino acids, cells were incubated overnight in medium containing 50 μCi/ml [^3H]myristic acid (49 Ci/mmol, PerkinElmer Life Sciences) or 0.2 mCi/ml [^3H]leucine (159 Ci/mmol, PerkinElmer Life Sciences) plus 0.4 mCi/ml [^3H]proline (100 Ci/mmol, PerkinElmer Life Sciences). Following labeling, cells were exposed to stimulatory reagents for 5 min. When an inhibitor was used, cells were preincubated with the inhibitor for 15 min prior to stimulation. At the end of the treatments, cells were lysed in a buffer containing 50 mM Tris-HCl (pH 7.5), 150 mM NaCl, 1 mM EDTA, 10% glycerol, 1% Nonidet P-40, 1 mM phenylmethylsulfonyl fluoride, 1 mM benzamidine, 10 μg/ml pepstatin A, and 10 μg/ml leupeptin. Trichloroacetic acid precipitation and scintillation counting may determine the radiolabeling efficiency in each culture. Immunoprecipitation of MARCKS protein was carried out according to the method of Spizz and Blackshear using cell lysates containing equal counts/min. Spizz et al., J. Biol. Chem. 271, 553-562 (1996). Precipitated proteins were resolved by 8% SDS-polyacrylamide gel electrophoresis and visualized by autoradiography. Anti-human MARCKS antibody (2F12) and nonimmune control antibody (6F6) were used in this assay.\nTo assess MARCKS or MARCKS-associated protein complexes in different subcellular fractions, radiolabeled and treated cells were scraped into a homogenization buffer (50 mM Tris-HCl (pH 7.5), 10 mM NaCl, 1 mM EDTA, 1 mM phenylmethylsulfonyl fluoride, 1 mM benzamidine, 10 μg/ml pepstatin A, 10 μg/ml leupeptin) and then disrupted by nitrogen cavitation (800 pounds/square inch for 20 min at 4° C.). Cell lysates were centrifuged at 600×g for 10 min at 4° C. to remove nuclei and unbroken cells. Post-nuclear supernatants were separated into membrane and cytosol fractions by ultracentrifugation at 400,000×g for 30 min at 4° C. The membrane pellet was solubilized in the lysis buffer by sonication. Immunoprecipitation was then carried out as described above.",
  "data": [
    {"smiles": "CCCCCCCCCCCCCC(=O)O[C@@H]1[C@@H](C)[C@@]2(O)[C@@H](C=C(CO)C[C@]3(O)C(=O)C(C)=C[C@@H]23)[C@@H]2C(C)(C)[C@]12OC(C)=O", "note": "[PMA, phorbol 12-myristate 13-acetate]", "values": [
      {"measurement": "increase in MARCKS phosphorylation", "value": "3-4 fold"}
    ]}
  ]
}
